Measured values from patent publication US20080292576A1, “METHOD FOR IDENTIFYING HAIR CONDITIONER-RESISTANT HAIR-BINDING PEPTIDES AND HAIR BENEFIT AGENTS THEREFROM” (E.I. du Pont de Nemours and Co., priority 2005, published 2008).
Where no end group is shown, it is not given here. 5‑FAM = 5-carboxyfluorescein-aminohexyl amidite fluorescent tag

Tests used:
[1] = ELISA determination of specificity, binding to pig skin; details: for Skin A450 ± SEM: ELISA, 20 μM fluorescein-labeled peptide in binding buffer, 30 min at 37° C., pig skin, absorbance at 450 nm; for binding to skin (in words): ELISA of Table 2, pig skin
Source text: (§1) The hair-binding peptides HCP.1 (SEQ ID NO:1) and HCP.6 (SEQ ID NO:4) were used in this Example along with a control peptide, an unrelated skin-binding peptide, Skin 1 (Huang et al., U.S. Patent Application Publication No. 2005/0050656), given as SEQ ID NO:8. All of the peptides were synthesized with an added lysine residue, derivatized with the fluorescent tag 5-carboxyfluorescein-aminohexyl amidite (5-FAM), at the C-terminus by SynPep (Dublin, Calif.). The sequences of the derivatized hair binding peptides HCP.1(5-FAM) and HCP.6(5-FAM) are given as SEQ ID NOs:9 and 10, respectively. The sequence of the derivatized skin-binding peptide control Skin 1(5-FAM) is given as SEQ ID NO:11.
(§2) For the assay, a unique hair or pig skin-bottom 96-well apparatus was created by applying one layer of Parafilm® under the top 96-well block of a Minifold I Dot-Blot System (Schleicher & Schuell, Inc., Keene, N.H.), adding hair or a layer of hairless pig skin on top of the Parafilm® cover, and then tightening the apparatus. The hair or skin sample in the 96-well apparatus was first blocked with SuperBlock® Blocking Buffer (Tris-buffered; Pierce Biotechnology, Rockford, Ill.) by incubating the sample for 1 h at room temperature. Then, the hair or skin sample was washed six times with wash buffer (TBST-0.5%). The fluorescein-labeled peptide, at a concentration of 20 μM in 1.0 mL of binding buffer (TBST-0.5% containing 1 mg/mL BSA), was added to each well and incubated for 30 min at 37° C. The hair or skin sample was washed six times with TBST-0.5%, and then, 1.0 mL of anti-fluorescein/Mouse IgG (Molecular Probes, Inc., Eugene, Oreg.) solution (1:1000 dilution in blocking buffer) was added per well. The samples were incubated for 1 h at room temperature and then washed six times with wash buffer. Then, 1.0 mL of Anti-Mouse IgG-HRP conjugate (Pierce Biotechnology) solution (1:1000 dilution in blocking buffer) was added to each well and the samples were incubated for 1 h at room temperature. The samples were washed six times with wash buffer, and 300 μL of TMB Substrate (Pierce Biotechnology) was added to each well. The samples were incubated for 10 min at room temperature and then a 100 μL sample from each well was taken and added to a well in a new microtiter plate. Then, 100 μL of Stop solution (2 M sulfuric acid solution) was added to each well and the absorbance of each sample was measured at a wavelength of 450 nm.

[2] = ELISA determination of specificity, binding to hair; design: species or system human; details: for Hair A450 ± SEM: ELISA, 20 μM fluorescein-labeled peptide in binding buffer, 30 min at 37° C., absorbance at 450 nm; for binding to hair (in words): ELISA of Table 2
Source text: as §1, §2

[3] = ELISA binding to hair bundles from a hair conditioner matrix or buffer; design: species or system human; details: for Buffer A450 ± SEM / 100% Conditioner A450 ± SEM: hair bundles, 30 min at 37° C.; for Buffer A450 ± SEM: 20 μM peptide in buffer; for 100% Conditioner A450 ± SEM: 20 μM peptide in undiluted Dove Extra Volume Conditioner; for difference in hair-binding activity from a hair conditioner matrix compared to buffer: ELISA of Table 3
Protocol: The same ELISA method described in Example 4 was used, except that the hair samples were assembled into bundles, instead of being cast as wells in a 96-well apparatus. To prepare the hair sample bundles, 100 pieces of 1 cm-long hairs were assembled together and taped at one end with narrow tape (3 M, St. Paul, Minn.). The hair was prepared as described in Examples 1-3 and placed into a flat-bottom block (Qiagen Science, Germantown, Md.; Cat. No. 19579).
The HCP.1(5-FAM) and HCP.6(5-FAM) hair-binding peptides, as described in Example 4, were mixed separately with undiluted hair conditioner (Dove® Extra Volume Conditioner; Unilever) using a high-shear mixer (Silverson, Model L4R7A; Silverson Machines, East Longmeadow, Mass.) for 6 min to give a final peptide concentration of 20 μM. The hair samples were blocked as described in Example 4 and then incubated in the peptide-conditioner mixtures for 30 min at 37° C. The hair samples were then washed and treated as described in Example 4. After the final wash step after the addition of the Anti-Mouse IgG-HRP conjugate, the hair bundles were transferred to new tubes and the TMB substrate was added. The hair bundles were incubated for 10 min at room temperature, and then a 100 μL sample from each tube was taken and added to a well in a microtiter plate. Then, 100 μL of Stop solution (2 M sulfuric acid solution) was added to each well and the absorbance of each sample was measured at a wavelength of 450 nm.
The binding of the HCP.1(5-FAM) and HCP.6(5-FAM) hair-binding peptides to hair from buffer was determined using the same procedure. In addition, controls were run using the same procedure, without any hair-binding peptide present, in both hair conditioner and buffer.

[4] = Stability of hair-binding activity in a hair conditioner matrix (ELISA over time); design: species or system human; details: 21 days in hair conditioner matrix, room temperature; FIGS. 1 and 2
Protocol: Separate mixtures of the hair-binding peptides HCP.1 and HCP.6 in hair conditioner were prepared as described in Example 5. For purposes of comparison, solutions of the hair-binding peptides in buffer were used. All the solutions were stored at room temperature and the binding activity of the peptides was determined using the ELISA procedure described in Example 5 using samples taken at different periods of time.

[5] = Shampoo resistance of hair binding (ELISA after 30% shampoo wash); design: species or system human; details: wash with 30% shampoo (Pantene Pro-V, Sheer Volume)
Protocol: Experiments were also done to determine if the hair conditioner-resistant hair-binding peptides were also shampoo resistant. For these experiments, the hair, after contacting with the hair-binding peptide (HCP.1 or HCP.6), was washed with a solution containing 30% shampoo (Pantene Pro-V, Sheer Volume, Proctor & Gamble, Cincinnati, Ohio) and the binding activity was determined using the ELISA method described above and compared to that obtained with buffer washes.

Row | Substance | Skin A450 ± SEM [1] | Hair A450 ± SEM [2] | Buffer A450 ± SEM [3] | 100% Conditioner A450 ± SEM [3] | hair-binding activity after storage in the hair conditioner matrix [4] | binding to skin (in words) [1] | binding to hair (in words) [2] | difference in hair-binding activity from a hair conditioner matrix compared to buffer [3] | binding activity after shampoo wash compared to buffer washes [5]
1 | HCP.1(5-FAM): HCP.1 with an added C-terminal lysine derivatized with fluorescent tag 5-carboxyfluorescein-aminohexyl amidite (THSTHNHGSPRHTNADAGNPK(5‑FAM)) | 0.090 ± 0.136 | 0.392 ± 0.065 | 1.593 ± 0.060 | 1.581 ± 0.046 | – | – | – | – | –
2 | HCP.6(5-FAM): HCP.6 with an added C-terminal lysine derivatized with fluorescent tag 5-carboxyfluorescein-aminohexyl amidite (STLHKYKSQDPTPHHK(5‑FAM)) | −0.009 ± 0.023 | 0.581 ± 0.053 | 1.420 ± 0.062 | 1.217 ± 0.075 | – | – | – | – | –
3 | STLHKYKSQDPTPHH (Hair conditioner-resistant hair-binding peptide) [HCP.6] | – | – | – | – | no significant decrease | not to skin | bind to hair | no significant difference | almost total loss of binding activity
4 | Skin 1(5-FAM): skin-binding control peptide Skin 1 with added C-terminal lysine derivatized with 5-FAM (TPFHSPENAPGSK(5‑FAM)) [reference compound] | 0.328 ± 0.146 | −0.001 ± 0.041 | – | – | – | – | – | – | –
5 | Skin 1: control peptide, an unrelated skin-binding peptide (Huang et al., US 2005/0050656) (TPFHSPENAPGS; Skin-binding peptide) [reference compound] | – | – | – | – | – | high skin-binding activity | low hair-binding activity | – | –
6 | THSTHNHGSPRHTNADAGNP (Hair conditioner-resistant hair-binding peptide) [HCP.1] | – | – | – | – | no significant decrease | not to skin | bind to hair | no significant difference | almost total loss of binding activity
